The values below come from PubChem BioAssay AID504765 (Sanford-Burnham Center for Chemical Genomics, 2011).

Calls of active or inactive are those of the source. No rule for the calls is given here.

In this experiment the target is glucose-6-phosphate dehydrogenase-6-phosphogluconolactonase (Plasmodium falciparum 3D7). The experiment in a line: concentration-dependent PfGluPho enzyme inhibition – biochemical, fluorescence intensity, dose response (AID 504765). To be noted: Recombinant PfG6PD enzyme, fluorescence intensity (NADPH).
As a reminder, the IC50 is the midpoint of a concentration-inhibition curve. Consider `O=c1c2ccccc2sn1-c1nccs1`, for which the IC50 was 1.69 µM.
The entry for `Cn1cc(S(=O)(=O)CC(=O)N2CCc3ccccc32)c2ccccc21` is “inactive”.
The figure for `O=[N+]([O-])c1cnc(Sc2ccncn2)c([N+](=O)[O-])c1` is 9.62 µM; for `COc1ccc2c(c1)c(=Cc1ccc(N(C)C)cc1)c1cc(-c3ccccc3)[n+](C)n12` it is 17.2 µM; for `CC(C)c1nnc(NC(=O)c2sc3ccccc3c2Cl)s1` it is 6.44 µM.
On to `Cc1ccc(S(=O)(=O)SC/C=C/CSS(=O)(=O)c2ccc(C)cc2)cc1`, for which the IC50 was 10.3 µM.
`O=C(CNC(=O)c1cccs1)NCC(=O)OCC(=O)c1ccc([N+](=O)[O-])cc1`: the IC50 is 16.7 µM.
The figure for `C=CCOc1c(Cl)cc(CNc2ccc3[nH]c(=O)[nH]c3c2)cc1OC` is 7.9 µM.
Regarding `COc1cc(C(=O)ON=C2C=C(C)C(=O)C(C)=C2)cc(OC)c1OC`, the IC50 was 5.09 µM.
The figure for `CN(C)c1cccc2c1c(NC(=O)c1ccc(Cl)cc1)nn2C` is 8.65 µM.
The figure for `CCOc1ccc(Cl)cc1/C=N/NC(N)=O` is 12.4 µM.
The figure for `COc1ccc(CNC(=O)Cc2cn(C)c3ccccc23)c(OC)c1` is 6.8 µM; for `Cc1ccc2nc(SCC(=O)NC3CCCc4ccccc43)[nH]c2c1` (stereo not drawn) it is 9.6 µM.
On to `COC1=C(N)C(=O)c2nc(C)ccc2C1=O`, for which the IC50 was 6.3 µM.
As to `OCCN1CCN(C(=S)c2ccc(-c3ccccc3)cc2)CC1`, the IC50 was 19.6 µM.
The figure for `CCOC(=O)c1c(C)n(-c2ccc(C)cc2)c2c(C(C(C)=O)C(=O)O)c(Br)c(O)c(O)c12` (stereo not drawn) is 2.76 µM.
The figure for `COc1ccc(CCn2c(NN=C3CCCCC3)nc3c2c(=O)[nH]c(=O)n3C)cc1` is 1.65 µM; for `COc1ccccc1N1CSC2=C(C#N)C(c3ccc(SC)cc3)CC(=O)N2C1` (stereo not drawn) it is 10.6 µM; for `COc1cc(N)c2ncccc2c1Cl` it is 6.92 µM.
Regarding `COc1ccc(-n2c(=S)[nH]c3c(sc(=S)n3-c3ccccc3)c2=O)c(OC)c1`, the IC50 result was “inactive”.
The figure for `CC(C)(C)NC(=O)COc1ccc(CNc2ccc3[nH]c(=O)[nH]c3c2)cc1` is 11.7 µM; for `O=C(Nc1nnc(S(=O)(=O)N2CCCC2)s1)c1cccc([N+](=O)[O-])c1` it is 4.17 µM.
The entry for `CCC(C)(C)c1nnc(NC(=O)C2CCN(C(=O)c3ccco3)CC2)s1` is “inactive”.
The figure for `COc1cc(/C=N/Nc2nncn2N)ccc1OCc1c(C)no[n+]1[O-]` is 8.92 µM; for `COc1cc(N(C)C)ccc1C=c1c2ccccc2n2c1cc(-c1ccccc1)[n+]2C` it is 9.08 µM; for `Cc1ccc(-n2sc3ccccc3c2=O)cc1` it is 8.63 µM.
Take `CC1(C)CN(c2ccccc2)N(C(=O)c2ccc(C#N)cc2)C1=O`: the IC50 was 9.37 µM.
The figure for `O=C(Cn1sc2ccccc2c1=O)Nc1ccc(F)cc1` is 2.56 µM.
The figure for `Cc1cc(C)c[n+](C2=C([O-])c3ccccc3C(=O)/C2=N\S(=O)(=O)c2cccs2)c1` is 15.3 µM; for `CCOC(=O)Cc1csc(-n2sc3ccccc3c2=O)n1` it is 2.82 µM.
The entry for `COc1ccc(C(=O)ON=C2C=C(C)C(=O)C(C)=C2)cc1` is “inactive”; for `Cc1cccc(C(=O)Nc2nnc(S(=O)(=O)N3CCOCC3)s2)c1` it is 7.44 µM; for `CCN(CC)C(=S)SSC(=S)N(CC)CC` it is 10.1 µM.
As for `CN(C)S(=O)(=O)c1cccc(-n2sc3ccccc3c2=O)c1`, the IC50 was 2.08 µM.
The figure for `CN(C)Cc1cc(O)c(CN(C)C)cc1O` is 2.03 µM; for `Cc1cc(C)c2c(=O)n(CC(=O)N3CCC(N4CCCCC4)CC3)sc2n1` it is 3.88 µM.
The figure for `COc1ccc(C(=O)/C=C2\Sc3ccccc3N2C)cc1` is 7.94 µM.
Turning to `CN1CCN(C(=S)C(=O)Nc2ccc(Br)cc2)CC1`, the IC50 was 7.26 µM.
The figure for `CC(=O)OCC1(C)CN(c2ccccc2)NC1=O` (stereo not drawn) is 5.19 µM; for `O=C(CN1C(=O)C2C3C=CC(C3)C2C1=O)OCC(=O)c1ccc([N+](=O)[O-])cc1` (stereo not drawn) it is 9.71 µM; for `CC1COCC(C)N1C1=C(Cl)C(=O)c2ccccc2C1=O` (stereo not drawn) it is 7.19 µM.
The figure for `O=c1[nH]sc2cc(F)ccc12` is 9.86 µM; for `COc1cc(NCc2ccccc2)c2ncn(C(C)C)c2c1` it is “inactive”; for `O=c1c2ccc(F)cc2sn1-c1ccccc1` it is 1.98 µM.
The figure for `CC1(C)CC2(CC(c3ccccc3F)c3ccc(O)c(O)c3O2)NC(=S)N1` (stereo not drawn) is 12.8 µM.
`O=C(O)c1cc(N2C(=O)C=CC2=O)cc(N2C(=O)C=CC2=O)c1`: the IC50 is 4.34 µM.
The entry for `CC(Cc1ccc(O)c(O)c1)C(C)Cc1ccc(O)c(O)c1` (stereo not drawn) is “inactive”.
The figure for `COc1ccc(CCn2c(NN=C3CCCC3)nc3c2c(=O)[nH]c(=O)n3C)cc1` is 9.56 µM; for `O=C(CCc1ccc(S(=O)(=O)N2CCOCC2)cc1)N/N=C/c1ccc(O)c(O)c1O` it is 5.82 µM; for `CC(=O)OCCCNc1cc(Sc2nc3ccccc3s2)c2nonc2c1[N+](=O)[O-]` it is 3.92 µM.
Regarding `O=C(COC(=O)c1ccc2c(c1[N+](=O)[O-])C(=O)c1ccccc1C2=O)NC1CC1`, the IC50 was 16.4 µM.
The figure for `Cc1ccc(-n2c(N)c(C(=O)N3CCN(C)CC3)sc2=S)cc1` is 16 µM; for `O=c1c2ccccc2sn1-c1ccccc1F` it is 6.48 µM; for `O=c1[nH]nc(CNc2ccc(O)cc2)c2ccccc12` it is “inactive”.
`Cc1cc(O)c(-c2cc(O)c(C)cc2O)cc1O`: the IC50 was 1.88 µM.
The figure for `O=C1Nc2ccccc2C(=O)C1(Cl)Cc1ccccc1` (stereo not drawn) is 9.57 µM.
With `CCS(=O)(=O)N1CCN(c2ccc([N+](=O)[O-])c(NC(C)c3ccccc3)c2)CC1` (stereo not drawn), the IC50 was 14.8 µM.
The figure for `Cc1cc(=O)[nH]c(N/N=C/c2c(C)nn(-c3ccccc3)c2Cl)n1` is 8.43 µM; for `O=c1c2cc(F)ccc2sn1-c1ccc(F)cc1` it is 2.22 µM.
The figure for `N#Cc1ccc(Oc2cccc3cccnc23)c([N+](=O)[O-])c1` is 5.66 µM; for `Cc1cc(C)c2c(=O)n(CC(=O)Nc3cccc(F)c3)sc2n1` it is 1.89 µM; for `Cc1ccc(/C=C/C(=O)NC2CCCCCCC2)o1` it is 9.66 µM.
The figure for `COc1cccc(C2(c3cccc(OC)c3)CC2C(=O)Nc2ccc(F)cc2)c1` (stereo not drawn) is 10.3 µM.
`COc1cccc(C=Nc2cc(C(C)C)c(O)cc2C)c1O`: the IC50 was 5.48 µM.
The figure for `Cc1cccc(C(=O)Nc2sc3c(c2C(=O)O)CCCC3)c1` is 8.55 µM.
The figure for `COc1ccccc1N1C(=O)C=C(Sc2nc(C)cc(C)n2)C1=O` is 7.18 µM; for `c1ccc(-c2nc(N3CCOCC3)s[n+]2-c2ccccc2)cc1` it is 3.97 µM.
The figure for `CCCNC(=O)Cn1sc2nc(C)cc(C)c2c1=O` is 3.13 µM.
Take `CCOC(=O)c1ccc(-n2c(N)c(C(=O)NCC3CCCO3)sc2=S)cc1` (stereo not drawn): the IC50 result was “inactive”.
The figure for `CC1=C(O)C(=O)C=C2C1=CC=C1C2(C)CCC2(C)C3CC(C)(C(=O)O)CCC3(C)CCC12C` (stereo not drawn) is 16.7 µM; for `C[n+]1c(-c2ccccc2)cc2c(=Cc3ccc([N+](=O)[O-])cc3)c3ccccc3n21` it is “inactive”; for `COc1cc(N2C(=O)C=CC2=O)ccc1N1C(=O)C=CC1=O` it is 4.43 µM.
For the compound `Cc1nnc(N/N=C/c2ccc(-c3ccccc3F)o2)n1N`, the IC50 was 16.9 µM.
Regarding `CCn1c([N+](=O)[O-])nc2c1c(=O)[nH]c(=O)n2C`, the IC50 is 12.2 µM.
Turning to `Cc1ccc(NS(=O)(=O)c2ccccc2Cl)c2c1CC(C)(C)O2`, the IC50 is 8.18 µM.
In the case of `O=C1C=CC(=O)N1c1ccc2c(c1)C(NC(=O)C(F)(F)F)c1ccccc1-2` (stereo not drawn), the IC50 is 9.14 µM.
The figure for `Fc1cccc(Cl)c1CNc1ccc(N2CCCC2)cc1` is 4.06 µM; for `CCC1(C)CC(C(N)=S)CCO1` (stereo not drawn) it is “inactive”; for `O=[N+]([O-])c1ccc(N/N=C/c2ccc(O)c(O)c2O)c(S(=O)(=O)N2CCOCC2)c1` it is 8.74 µM.
The figure for `Cc1ccc(Nc2cc(C)c(O)c(C)c2)cc1` is 6.16 µM.
As for `Cc1cccc(C(=O)Nc2nnc(S(=O)(=O)N3CCCCCC3)s2)c1`, the IC50 is 6.58 µM.
The figure for `COc1ccc(Cl)cc1NC(=O)c1cccc([N+](=O)[O-])c1O` is 8.87 µM; for `[O-]/[N+](=C/c1cccnc1)c1ccc(Br)cc1` it is 1.11 µM; for `O=C(CCC(=O)Nc1ccccc1Cl)N/N=C/c1ccccc1` it is 3.17 µM.
Regarding `CCCCCCCCSC1=CC(=O)C(OC)=C(OC)C1=O`, the IC50 is 1.71 µM.
The entry for `CCn1c(N)c(C(=O)NC)sc1=S` is “inactive”; for `O=S(=O)(Nc1cccc2cccnc12)c1ccccc1` it is 7.08 µM.
`COc1ccc(CN(C)S(=O)(=O)c2nnc(NC(=O)c3cccc(C)c3)s2)cc1OC`: the IC50 is 6.89 µM.
The figure for `COc1ccc(-c2cn3cc(C)ccc3n2)cc1Br` is 9.91 µM; for `Cc1ccc(S(=O)(=O)Oc2cccc(/C=N/Nc3ccc(C(=O)O)cc3)c2)cc1` it is 7.01 µM; for `COc1cccc(C(=O)Nc2nnc(S(=O)(=O)N(C)Cc3ccccc3)s2)c1` it is 4.04 µM.
The figure for `O=c1[nH]c(NCCO)c(N=Cc2ccccc2)c(=O)[nH]1` is 1.03 µM.
The entry for `CC(C)(C)c1ccc(O)c(O)c1` is “inactive”; for `O=C(Nc1ccc(N2CCCC2)cc1)c1cccc(-c2cc3ccccc3oc2=O)c1` it is “inactive”.
Consider `COc1cc(CNc2ccc(N3CCCC3)cc2)cc(Cl)c1OC`, for which the IC50 was 3.64 µM.
`c1cc(CNc2ccc3c(c2)OCO3)ccn1`: the IC50 entry is “inactive”.
The figure for `O=C(CSc1nc2ccccc2[nH]1)NC1CCCc2ccccc21` (stereo not drawn) is 13.4 µM; for `O=C(O)C(Cc1ccccc1)N1C(=O)C=CC1=O` (stereo not drawn) it is 6.01 µM; for `CC(=NNC(=S)N1CCN(c2ccccn2)CC1)c1nccs1` it is 5.6 µM.
Consider `O=C1C(=Cc2cccc(O)c2O)SC(=S)N1CCCN1CCOCC1`, for which the half-inhibitory concentration (IC50) was 14.1 µM.
The figure for `OCc1ccccc1SSc1ccccc1CO` is 16.5 µM; for `CCC1(CC)Cc2ccccc2C(N)=C1C#N` it is “inactive”.
Consider `CC(C)c1nnc(NC(=O)c2cccc(-n3cnnn3)c2)s1`, for which the IC50 is 5.55 µM.
